Results on 23 compounds are retold here after PubChem BioAssay AID248 (DTP/NCI, 2004).

SMILES strings stand for the structures. Toxic doses and inconclusive results are not listed.

The experiment relates to L1210 leukemia ip in BDF1 mice, survival T/C. In words: NCI In Vivo Anticancer Drug Screen. Data for tumor model L1210 Leukemia (intraperitoneal) in B6D2F1 (BDF1) mice. The conditions noted are these: endpoint: mean survival time, higher = longer survival. Summed up:
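Antitumor effect is assessed in tumor-bearing animals. Survival in the compound arm is compared with a vehicle-dosed control arm and expressed as their quotient.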

Where [1] appears, read: dose: 100.0 mg/kg/injection, schedule: Q04DX003 (ip), vehicle: saline with Tween-80.
The mark [2] stands for this setting: dose: 200.0 mg/kg/injection, schedule: Q04DX003 (ip), vehicle: saline with Tween-80.
Setting [3] is: dose: 400.0 mg/kg/injection, schedule: Q04DX003 (ip), vehicle: saline with Tween-80.
Setting [4] is: dose: 400.0 mg/kg/injection, schedule: Q01DX001 (ip), vehicle: carboxymethylcellulose (CMC).
[5] abbreviates: dose: 75.0 mg/kg/injection, schedule: Q01DX001 (ip), vehicle: saline.
Setting [6] is: dose: 150.0 mg/kg/injection, schedule: Q01DX001 (ip), vehicle: saline.
Setting [7] is: dose: 100.0 mg/kg/injection, schedule: Q01DX001 (ip), vehicle: saline with Tween-80.
The mark [8] stands for this setting: dose: 100.0 mg/kg/injection, schedule: Q01DX009 (ip), vehicle: Klucel (hydroxypropylcellulose) (HPC).
The mark [9] stands for this setting: dose: 200.0 mg/kg/injection, schedule: Q01DX009 (ip), vehicle: Klucel (hydroxypropylcellulose) (HPC).
[10] abbreviates: dose: 50.0 mg/kg/injection, schedule: Q01DX001 (ip), vehicle: carboxymethylcellulose (CMC).
Where [11] appears, read: dose: 100.0 mg/kg/injection, schedule: Q01DX001 (ip), vehicle: carboxymethylcellulose (CMC).
Where [12] appears, read: dose: 200.0 mg/kg/injection, schedule: Q01DX001 (ip), vehicle: carboxymethylcellulose (CMC).

Consider `F[Si](C1CCCCC1)(C1CCCCC1)C1CCCCC1`, for which the T/C (dose: 100.0 mg/kg/injection, schedule: Q01DX009 (ip), vehicle: saline with Tween-80) is 92 % of control; the T/C (dose: 200.0 mg/kg/injection, schedule: Q01DX009 (ip), vehicle: saline with Tween-80) was 91 % of control; the T/C (dose: 400.0 mg/kg/injection, schedule: Q01DX009 (ip), vehicle: saline with Tween-80) was 89 % of control.
`CC(=O)N(C)NC(=O)c1ccccn1`: the T/C (dose: 12.5 mg/kg/injection, schedule: Q01DX009 (ip), vehicle: water) is 103 % of control; the T/C (dose: 25.0 mg/kg/injection, schedule: Q01DX009 (ip), vehicle: water) is 103 % of control; the T/C (dose: 50.0 mg/kg/injection, schedule: Q01DX009 (ip), vehicle: water) is 105 % of control.
For the compound `O=[N+]([O-])c1ccc(N=C(Cl)N(c2ccccc2)c2ccccc2)cc1`, the T/C was 101 % of control (dose: 100.0 mg/kg/injection, schedule: Q01DX001 (ip), vehicle: saline); 109 % of control (dose: 200.0 mg/kg/injection, schedule: Q01DX001 (ip), vehicle: saline); 109 % of control (dose: 400.0 mg/kg/injection, schedule: Q01DX001 (ip), vehicle: saline).
As to `CC(=O)NC1CCC(/C=C(\C#N)C2CCC(C)CC2)CC1` (centres undefined), the T/C is 87 % of control (dose: 100.0 mg/kg/injection, schedule: Q04DX002 (ip), vehicle: saline with Tween-80) and 93 % of control (dose: 200.0 mg/kg/injection, schedule: Q04DX002 (ip), vehicle: saline with Tween-80).
`O=C1CC2=CC3C=CC(N1)C2C=C3` (centres undefined): the T/C reads like this: under setting [1], 109 % of control; under setting [2], 106 % of control; under setting [3], 109 % of control.
Turning to `O=C(O)c1ccccc1-c1ccc([N+](=O)[O-])cc1Cl`, the T/C is, setting by setting: (dose: 177.0 mg/kg/injection, schedule: Q01DX001 (ip), vehicle: carboxymethylcellulose (CMC)) 106 % of control; (dose: 266.0 mg/kg/injection, schedule: Q01DX001 (ip), vehicle: carboxymethylcellulose (CMC)) 98 % of control; under setting [4], 104 % of control.
Turning to `N=c1ccc2ccccc2n1O`, the T/C (dose: 6.25 mg/kg/injection, schedule: Q04DX003 (ip), vehicle: other) is 97 % of control; the T/C (dose: 12.5 mg/kg/injection, schedule: Q04DX003 (ip), vehicle: other) is 95 % of control; the T/C (dose: 25.0 mg/kg/injection, schedule: Q04DX003 (ip), vehicle: other) was 100 % of control.
With `Cc1ccc(SCCCN)cc1`, the T/C under setting [5] was 100 % of control and the T/C under setting [6] was 94 % of control.
On to `Nc1cc(/C=C/c2ccc(/C=C/c3ccc(S(=O)(=O)F)cc3)cc2)nc(N)n1`, for which the T/C reads like this: (dose: 50.0 mg/kg/injection, schedule: Q01DX001 (ip), vehicle: saline with Tween-80) 87 % of control; under setting [7], 92 % of control.
For `CCCCCCCCCOc1ccc(C=O)cc1OC`, the T/C is, setting by setting: (dose: 100.0 mg/kg/injection, schedule: Q01DX001 (ip), vehicle: Klucel (hydroxypropylcellulose) (HPC)) 93 % of control; (dose: 200.0 mg/kg/injection, schedule: Q01DX001 (ip), vehicle: Klucel (hydroxypropylcellulose) (HPC)) 102 % of control; (dose: 400.0 mg/kg/injection, schedule: Q01DX001 (ip), vehicle: Klucel (hydroxypropylcellulose) (HPC)) 100 % of control.
With `ClC12CCC(CC1)C2`, the T/C is, setting by setting: (dose: 100.0 mg/kg/injection, schedule: Q04DX002 (ip), vehicle: saline) 96 % of control; (dose: 200.0 mg/kg/injection, schedule: Q04DX002 (ip), vehicle: saline) 104 % of control; (dose: 400.0 mg/kg/injection, schedule: Q04DX002 (ip), vehicle: saline) 93 % of control.
Regarding `O=C(CCc1ccc(C(=O)Nc2ccc(C3=NCCCN3)cc2)cc1)Nc1ccc(C2=NCCCN2)cc1`, the T/C runs as follows: (dose: 0.37 mg/kg/injection, schedule: Q01DX Z (ip), vehicle: water) 98 % of control; (dose: 0.75 mg/kg/injection, schedule: Q01DX Z (ip), vehicle: water) 108 % of control; (dose: 1.0 mg/kg/injection, schedule: Q01DX Z (ip), vehicle: water) 121 % of control; (dose: 4.0 mg/kg/injection, schedule: Q01DX Z (ip), vehicle: water) 232 % of control; (dose: 8.0 mg/kg/injection, schedule: Q01DX Z (ip), vehicle: water) 270 % of control; (dose: 25.0 mg/kg/injection, schedule: Q01DX Z (oral), vehicle: water) 102 % of control. Also, the T/C runs as follows: (dose: 50.0 mg/kg/injection, schedule: Q01DX Z (oral), vehicle: water) 93 % of control; (dose: 100.0 mg/kg/injection, schedule: Q01DX Z (oral), vehicle: water) 93 % of control; (dose: 200.0 mg/kg/injection, schedule: Q01DX Z (oral), vehicle: water) 102 % of control.
`c1ccc(COc2ccc(Cc3nccc4ccccc34)cc2OCc2ccccc2)cc1`: the T/C by setting is: under setting [1], 88 % of control; under setting [3], 88 % of control.
For the compound `CCOC(=O)/C=C/c1c(Cl)nc2ccccn2c1=O`, the T/C under setting [7] was 96 % of control; the T/C (dose: 100.0 mg/kg/injection, schedule: Q01DX009 (ip), vehicle: saline) was 90 % of control; the T/C (dose: 200.0 mg/kg/injection, schedule: Q01DX001 (ip), vehicle: saline with Tween-80) was 94 % of control; the T/C (dose: 200.0 mg/kg/injection, schedule: Q01DX009 (ip), vehicle: saline) was 90 % of control; the T/C (dose: 400.0 mg/kg/injection, schedule: Q01DX001 (ip), vehicle: saline with Tween-80) was 92 % of control; the T/C (dose: 400.0 mg/kg/injection, schedule: Q01DX009 (ip), vehicle: saline) was 95 % of control.
Take `CC1CCC2N(C1)CC1C3(O)CC45OC6(O)C(O)CCC4(C)C6CCC5C3(O)CC(O)C1(O)C2(C)O` (centres undefined): the T/C is, setting by setting: under setting [5], 104 % of control; under setting [6], 105 % of control.
Take `Cc1ccc([N+](=O)[O-])cc1NC(=O)Nc1ccccc1C(F)(F)F`: the T/C reads like this: under setting [8], 93 % of control; under setting [9], 96 % of control; (dose: 400.0 mg/kg/injection, schedule: Q01DX009 (ip), vehicle: Klucel (hydroxypropylcellulose) (HPC)) 95 % of control.
On to `O=c1[nH]c(-c2ccccc2)nc(CN2CCCCC2)c1O`, for which the T/C under setting [10] was 101 % of control, the T/C under setting [11] is 101 % of control, the T/C under setting [12] is 98 % of control and the T/C under setting [4] was 95 % of control.
Regarding `CC(SCc1cc(=O)[nH]c(=O)[nH]1)C(=O)O` (centres undefined), the T/C is, setting by setting: (dose: 100.0 mg/kg/injection, schedule: Q04DX003 (ip), vehicle: saline) 98 % of control; (dose: 200.0 mg/kg/injection, schedule: Q04DX003 (ip), vehicle: saline) 98 % of control; (dose: 400.0 mg/kg/injection, schedule: Q04DX003 (ip), vehicle: saline) 96 % of control.
For the compound `c1ccc(N=NC(N=Nc2ccccc2)=P(c2ccccc2)(c2ccccc2)c2ccccc2)cc1`, the T/C under setting [8] was 97 % of control and the T/C under setting [9] was 108 % of control.
Consider `CCCCCCCCCCCCCCCCOc1ccc(C(=O)OC)cc1[N+](=O)[O-]`, for which the T/C by setting is: under setting [1], 94 % of control; under setting [2], 90 % of control; under setting [3], 87 % of control.
As to `O=C(O)c1ccc(/C=N/Nc2nnc(N/N=C/c3ccc(C(=O)O)cc3)c3ccccc23)cc1`, the T/C under setting [10] was 113 % of control, the T/C under setting [11] was 113 % of control, the T/C under setting [12] is 107 % of control and the T/C under setting [4] was 104 % of control.
As to `CC(C)N(C(=O)Nc1cc([N+](=O)[O-])ccc1Cl)c1ccccc1`, the T/C runs as follows: (dose: 12.5 mg/kg/injection, schedule: Q01DX009 (ip), vehicle: Klucel (hydroxypropylcellulose) (HPC)) 89 % of control; (dose: 25.0 mg/kg/injection, schedule: Q01DX009 (ip), vehicle: Klucel (hydroxypropylcellulose) (HPC)) 96 % of control; (dose: 50.0 mg/kg/injection, schedule: Q01DX009 (ip), vehicle: Klucel (hydroxypropylcellulose) (HPC)) 98 % of control.
With `COc1ccc2c(c1)sc(/C=C/c1ccc(O)c3ncccc13)[n+]2C`, the T/C is 111 % of control under setting [5]; 110 % of control under setting [6]; 117 % of control (dose: 300.0 mg/kg/injection, schedule: Q01DX001 (ip), vehicle: saline).
